Experimental data: ChEMBL document CHEMBL1201862, “PubChem BioAssay data set” (2004)
Calls of active or inactive are those of the source.

Assays:
[1] = Counterscreen for IDE inhibitors: Luminescence-based cell-based high throughput dose response assay to identify compounds that are cytotoxic to HEK cells. [Related pubchem assays: 434962 (Primary screen (IDE inhibitors in singlicate)), 449730 (Counterscreen (Cytotoxicity in triplicate)), 435028 (Confirmation (IDE inhibitors in triplicate)) …; type: functional; details: HEK293
Insulin-degrading enzyme = target: T1, Insulin-degrading enzyme (Homo sapiens, UniProt P14735); assay: Dose Response: Fluorescence polarization-based cell-based high throughput dose response assay for inhibitors of insulin-degrading enzyme (IDE). [Related pubchem assays: 434962 (Primary screen (IDE inhibitors in singlicate)), 449730 (Counterscreen (Cytotoxicity in triplicate)), 435028 (Confirmation (IDE inhibitors in triplicate)), 434984 (Summary …; type: functional
T1 sequence (P14735 whole entry): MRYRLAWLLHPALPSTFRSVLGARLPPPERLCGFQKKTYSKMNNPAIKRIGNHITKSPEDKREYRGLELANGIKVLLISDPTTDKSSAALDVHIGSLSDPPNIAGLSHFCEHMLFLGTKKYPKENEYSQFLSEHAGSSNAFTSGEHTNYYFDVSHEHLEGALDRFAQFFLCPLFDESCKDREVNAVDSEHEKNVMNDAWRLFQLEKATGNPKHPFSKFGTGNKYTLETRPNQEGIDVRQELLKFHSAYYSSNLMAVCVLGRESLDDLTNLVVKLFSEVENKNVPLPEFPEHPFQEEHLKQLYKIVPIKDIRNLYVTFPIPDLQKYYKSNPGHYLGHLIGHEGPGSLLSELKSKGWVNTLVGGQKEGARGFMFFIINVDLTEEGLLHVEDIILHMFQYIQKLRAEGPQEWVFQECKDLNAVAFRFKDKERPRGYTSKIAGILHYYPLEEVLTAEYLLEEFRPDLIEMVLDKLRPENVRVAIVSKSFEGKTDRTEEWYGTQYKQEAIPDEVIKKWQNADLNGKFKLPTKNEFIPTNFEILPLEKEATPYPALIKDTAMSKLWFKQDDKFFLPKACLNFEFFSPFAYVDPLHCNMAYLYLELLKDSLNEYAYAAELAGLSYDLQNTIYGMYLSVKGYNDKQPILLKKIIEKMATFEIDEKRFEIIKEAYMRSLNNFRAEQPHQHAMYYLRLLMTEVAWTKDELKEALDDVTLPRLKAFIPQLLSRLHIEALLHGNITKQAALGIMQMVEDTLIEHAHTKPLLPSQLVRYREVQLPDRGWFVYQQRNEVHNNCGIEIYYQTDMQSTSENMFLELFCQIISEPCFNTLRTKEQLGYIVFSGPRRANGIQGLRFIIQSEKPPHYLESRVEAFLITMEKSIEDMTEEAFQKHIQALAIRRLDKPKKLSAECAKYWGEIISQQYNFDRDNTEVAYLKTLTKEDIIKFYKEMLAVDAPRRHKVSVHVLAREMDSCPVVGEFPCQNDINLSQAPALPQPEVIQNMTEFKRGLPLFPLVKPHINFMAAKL

[2] = target: T2, Short transient receptor potential channel 4 (Mus musculus, UniProt Q9QUQ5); assay: block of DAMGO-driven TRPC4 calcium entry – cell-based, HEK293 TRPC4/mu-opioid, Fluo-4 calcium, dose response (AID 434942); type: functional;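 further: potency of inhibitors blocking the TRPC4 calcium response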
T2 sequence (Q9QUQ5 whole entry): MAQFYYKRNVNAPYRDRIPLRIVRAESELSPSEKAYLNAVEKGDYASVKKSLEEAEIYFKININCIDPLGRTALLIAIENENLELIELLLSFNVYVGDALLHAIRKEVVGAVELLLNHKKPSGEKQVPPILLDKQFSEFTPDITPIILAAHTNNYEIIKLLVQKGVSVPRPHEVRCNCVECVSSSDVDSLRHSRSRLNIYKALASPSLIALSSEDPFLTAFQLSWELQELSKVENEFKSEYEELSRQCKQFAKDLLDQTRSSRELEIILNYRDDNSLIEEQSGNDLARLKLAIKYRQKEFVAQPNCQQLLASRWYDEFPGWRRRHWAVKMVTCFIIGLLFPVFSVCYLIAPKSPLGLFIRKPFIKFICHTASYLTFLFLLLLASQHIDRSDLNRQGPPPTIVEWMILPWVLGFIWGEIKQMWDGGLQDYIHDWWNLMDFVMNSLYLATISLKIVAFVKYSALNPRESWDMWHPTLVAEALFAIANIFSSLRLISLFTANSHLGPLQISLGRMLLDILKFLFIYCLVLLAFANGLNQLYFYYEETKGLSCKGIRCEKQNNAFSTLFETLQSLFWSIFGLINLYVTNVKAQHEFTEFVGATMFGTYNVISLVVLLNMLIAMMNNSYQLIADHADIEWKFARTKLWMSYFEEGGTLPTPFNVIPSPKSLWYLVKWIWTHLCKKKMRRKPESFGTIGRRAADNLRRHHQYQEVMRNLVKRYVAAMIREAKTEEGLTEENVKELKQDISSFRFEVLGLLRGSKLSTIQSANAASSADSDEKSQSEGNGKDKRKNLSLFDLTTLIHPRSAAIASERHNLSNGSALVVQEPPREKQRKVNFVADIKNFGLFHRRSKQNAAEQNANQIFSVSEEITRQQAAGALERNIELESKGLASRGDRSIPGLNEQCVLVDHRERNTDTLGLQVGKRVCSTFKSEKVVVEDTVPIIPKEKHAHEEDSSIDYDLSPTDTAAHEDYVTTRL

[3] = A Cell Based Secondary Assay To Explore Cytotoxicity of Compounds that Sensitize Mycobacterium Tuberculosis to Beta-Lactam Antibiotics.; type: functional
[4] = antiviral protection against BTV-induced cell death – arbovirus, BSR cells, confirmation (AID 1250); type: functional;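 further: protection from viral cytopathic effect measured as cell viability by ATP luminescence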
[5] = viability of uninfected HEp-2 cells – cell-based, HTS, cytotoxicity control for RSV inhibitor project, dose response (AID 2410); type: functional; details: human respiratory syncytial virus
[6] = viability of PTEN-deleted HCT116 cells – cell-based, HCT116 PTEN knockout, dose response (AID 1047); type: functional;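 further: HCT116 colon tumor cells with PTEN knocked out; cells exposed to compound for 60 hours before readout; potency for loss of cell viability measured by luminescence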
[7] = viability of HCT116 lacking mutant beta-catenin – cell-based, human colon tumor, dose response (AID 1045); type: functional;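 further: HCT116 colon tumor cells with beta catenin knocked out; cells exposed to compound for 60 hours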
[8] = Luminescence Cell-Based Dose Retest to Confirm Inhibitors of Cancer Stem Cells. [Related pubchem assays (depositor defined):AID2717, AID2721]; type: functional; details: Homo sapiens
Bcl-2-like protein 10 = target: T3, Bcl-2-like protein 10 (Homo sapiens, UniProt Q9HD36); assay: Concentration-response of Bcl-B inhibitors by biochemical FP with TR3 (AID 1243); type: functional
T3 sequence (Q9HD36 whole entry): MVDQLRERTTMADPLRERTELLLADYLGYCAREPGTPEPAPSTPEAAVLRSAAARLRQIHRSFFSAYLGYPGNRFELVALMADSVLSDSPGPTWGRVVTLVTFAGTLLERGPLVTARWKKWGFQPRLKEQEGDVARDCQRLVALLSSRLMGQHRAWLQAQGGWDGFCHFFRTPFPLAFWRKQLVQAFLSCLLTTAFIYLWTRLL

[9] = target: Lysosomal acid glucosylceramidase (Homo sapiens, UniProt P04062); assay: Dose response cell-based high throughput screening assay to identify enhancers of beta-glucosidase activity. [Related pubchem assays: 784 ]; type: functional
Sequence of Lysosomal acid glucosylceramidase (P04062 whole entry): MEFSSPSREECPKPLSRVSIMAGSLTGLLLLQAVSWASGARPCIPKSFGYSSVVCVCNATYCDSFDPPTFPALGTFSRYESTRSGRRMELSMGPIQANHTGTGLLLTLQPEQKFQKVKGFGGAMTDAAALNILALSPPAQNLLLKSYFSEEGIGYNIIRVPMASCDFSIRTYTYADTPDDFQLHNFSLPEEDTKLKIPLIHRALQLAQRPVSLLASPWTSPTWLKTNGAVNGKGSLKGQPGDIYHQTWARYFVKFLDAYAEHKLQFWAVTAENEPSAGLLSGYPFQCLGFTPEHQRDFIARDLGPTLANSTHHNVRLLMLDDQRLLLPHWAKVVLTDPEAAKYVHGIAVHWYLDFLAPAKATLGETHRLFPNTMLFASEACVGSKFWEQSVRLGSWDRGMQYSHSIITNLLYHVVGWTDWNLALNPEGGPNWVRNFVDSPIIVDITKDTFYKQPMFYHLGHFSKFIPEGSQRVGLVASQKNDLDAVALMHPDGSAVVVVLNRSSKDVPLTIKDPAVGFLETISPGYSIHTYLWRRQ

[10] = luciferase reporter signal suppression in cells – H4 neuroglioma cells, luminescence, dose response (AID 1990); type: functional, cell-based
[11] = Luminescence Cell-Based Dose Response HTS to Identify Inhibitors of 5'UTR Stem-Loop Driven Prion Protein mRNA Translation in H4 Neuroglioblastoma Cells. [Related pubchem assays: 1827 (Project Summary), 1813 (Primary HTS)]; type: functional
[12] = alpha-synuclein stem-loop luciferase translation blockers – H4 neuroglioma cells, luminescence, confirmation (AID 1988); type: functional, cell-based
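Wherever AC50 is given: cells exposed to compound for roughly 70 hours or longer before luminescence read.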

Cc1cccc(-c2nnc(SCc3nc4ccccc4[nH]3)n2Cc2ccco2)c1
IC50 [1]: 22.5 µM (not active) | IC50 (Insulin-degrading enzyme): 5.67 µM (active) | EC50 [2]: 1.19 µM (active)

CC(C)Cn1c2c(c(O)c(C(=O)Nc3nccs3)c1=O)CCCC2
CC50 [3]: > 40 µM (active) | IC50 [4]: 94.4 µM (active)

COc1ccc2c(c1)-c1nc(NC(=O)c3cccs3)sc1CC2
CC50 [5]: 7.91 µM (active) | EC50 [6]: 22 µM (active) | EC50 [7]: 21.4 µM (active) | AC50 [8]: 6.23 µM (active) | IC50 (cells): 26.8 µM (active)

O=C(O)C1Nc2ccc3ccccc3c2C2C=CCC12 (configuration not stated)
EC50 (Bcl-2-like protein 10): 7.15 µM (active)

Cc1cc2ccccc2c(=O)n1CC(=O)NCC(=O)N1CCN(c2ccccc2)CC1
EC50 [9]: > 10 µM (not active)

COc1ccc(/N=C2/C(=N\c3ccc(OC)cc3)N(c3ccc(OC)cc3)C(=S)N2c2ccc(N(C)C)cc2)cc1
CC50 [5]: > 50 µM (active) | EC50 [10]: 0.146 µM (active) | EC50 [11]: 0.126 µM (active) | EC50 [12]: 0.123 µM (active) | IC50 (cells): 5.89 µM (active)
